For this assay, the system named is PMP22 protein. Put plainly: PMP22 protein expression analysis by flow cytometry (FACS) in primary rat Schwann cells. The format is cell-based. Conditions: 1 μM. The method, then:
One day later, primary Schwann cells are stimulated by drugs during 24 hrs (3 wells/condition). The preparation of each compound is performed just prior to its addition to the cell culture medium. The following PCR conditions are used: Denaturation 5 min at 95° C. followed by 10 sec at 95° C., 40 sec at 60° C. and 10 sec at 72° C. and 1 min at 40° C. (Forty amplification cycles). The relative levels of PMP22 gene expression are measured following the Ct method comparing the quantity of products generated from the target gene PMP22 and the […] 8 hrs, 24 hrs and 48 hrs after drugs incubation, supernatants of primary rat Schwann cells are recovered, centrifuged and frozen. SC are detached with trypsin-EDTA. As soon as the majority of cells are in suspension, the trypsin is neutralised using DMEM with 10% FCS. Supernatants with cells are recovered and centrifuged. […] Forward Scatter (FSC) correlated with cell volume (size) and Side Scatter (SSC) depending on inner complexity of cells (granularity) are analysed. For expression of PMP22, analysis is performed within the total cells and percent of positive cells is calculated. Positive cells are cells with fluorescence intensity higher than the control with secondary antibody.
(In flow cytometry, cells or beads pass a laser one at a time.)

As to `CC[C@@H]1C(=O)OC[C@@H]1Cc1cncn1C` [pilocarpine, (3S,4R)-3-ethyl-4-[(3-methylimidazol-4-yl)methyl]oxolan-2-one], the “decrease of PMP22 protein level of expression” value (24 hrs of incubation) was determined as 38%. The “change of PMP22 protein level of expression” value (48 hrs of incubation, p<0.001) is on record as −18%.

The record behind these values is patent publication US9597297B2, “Combination of pilocarpin and methimazol for treating Charcot-Marietooth disease and related disorders” (PHARNEXT, priority 2008, dated 2017).
